This passage reports MIC and IC50 results from ChEMBL document CHEMBL4400517, “Marine natural products as potential anti-tubercular agents” (Eur J Med Chem, 2019).

Values after ≈ are worked out from the molar mass of the structure shown.

The term IC50 denotes the concentration needed to halve the response being measured. Low values mean greater potency in that assay, high ones weaker potency in that assay.

One assay concerns Mycobacterium tuberculosis. Kind of assay: Antibiofilm activity against Mycobacterium bovis BCG after 5 weeks. Particulars: variant bovis BCG. The format is functional.
With `CC(C)=C/C=C\[C@H](C)[C@H]1CC[C@]2(C)C[C@H]3[C@H](C(=O)C[C@@]3(C)O)/C(C=O)=C\C[C@@H]12`, the MIC was determined as 8.2 µM (≈ 3.15 µg/mL).

The subject of the next assay is Mycobacterium tuberculosis. Nature of the assay: Antimycobacterial activity against Mycobacterium bovis BCG. Particulars: variant bovis BCG. Type of assay: functional.
Regarding `COC(=O)N[C@H]1[C@@H](C)O[C@@H](O[C@H]2C/C=C(\C)[C@@H]3C=C[C@@H]4[C@@H](O[C@@H]5C[C@@H](O[C@@H]6C[C@@H](O)[C@@H](O[C@H]7C[C@@H](C)[C@H](OC)[C@H](O)C7)[C@H](C)O6)[C@@H](O)[C@H](C)O5)[C@@H](C)C[C@H](C)[C@H]4[C@]3(C)C(=O)C3=C(O)[C@@]4(C[C@@H](C)C(CO)=C[C@H]4/C=C/2C)OC3=O)C[C@]1(C)N`, the MIC is 1.35 µM (≈ 1.56 µg/mL).
On to `C=CC(C)(C)c1[nH]c2ccccc2c1/C=c1\[nH]c(=O)c2n(c1=O)CCC=2C1=c2c(=O)[nH]/c(=C\c3c(C(C)(C)C=C)[nH]c4ccccc34)c(=O)n2CC1`, for which the MIC came to 9.03 µM (≈ 6.26 µg/mL).
Same read-out and setting: in the case of `COC(=O)N[C@H]1[C@@H](C)O[C@@H](O[C@H]2C/C=C(\C)[C@@H]3C=C[C@@H]4[C@@H](O[C@@H]5C[C@@H](O[C@@H]6C[C@@H](O)[C@@H](O[C@H]7C[C@@H](C)[C@H](OC)[C@H](O)C7)[C@H](C)O6)[C@@H](O)[C@H](C)O5)[C@@H](C)C[C@H](C)[C@H]4[C@]3(C)C(=O)C3=C(O)[C@@]4(C[C@@H](C)C(COC(C)=O)=C[C@H]4/C=C/2C)OC3=O)C[C@]1(C)N` it was 1.3 µM (≈ 1.56 µg/mL); in that of `COC(=O)N[C@H]1[C@@H](C)O[C@@H](O[C@H]2C/C=C(\C)[C@@H]3C=C[C@@H]4[C@@H](O[C@@H]5C[C@@H](O[C@@H]6C[C@@H](O)[C@@H](O[C@H]7C[C@@H](C)[C@H](OC)[C@H](O)C7)[C@H](C)O6)[C@@H](O)[C@H](C)O5)[C@@H](C)C[C@H](C)[C@H]4[C@]3(C)C(=O)C3=C(O)[C@@]4(C[C@@H](C)C(CO)=C[C@H]4/C=C/2C)OC3=O)C[C@]1(C)[N+](=O)[O-]`, 0.66 µM (≈ 0.782 µg/mL); in that of `COc1ccc2c(c1)CC1=C2[C@H](O)[C@@]2(O)C(=O)N3CCC[C@H]3C(=O)N2[C@H]1C=C(C)C`, 2.41 µM (≈ 0.989 µg/mL).
Still for that read-out and setting: for `C1=C2CCCC/C=C\C=C\CCN3CC[C@@H]4[C@H](CCCCCC/C=C\C=C/CCN(C2)C[C@H]14)C3` (relative stereo) [HALICYCLAMINE A] the value was 2.16 to 10.8 µM (≈ 1 to 5.01 µg/mL); for `O=C1N[C@@H](Cc2c[nH]c3ccccc23)C(=O)N2CCC[C@@H]12` [BREVIANAMIDE F], 44.2 µM (≈ 12.5 µg/mL); for `NNC(=O)c1ccncc1` [ISONIAZID], 0.36 µM (≈ 0.0494 µg/mL).
On to `COC(=O)Nc1coc(C(=O)Nc2coc(C(=O)NCCc3ccc(O)cc3)c2)c1` [PROXIMICIN B], for which the MIC was 15.1 µM (≈ 6.25 µg/mL).

In a further assay the test system is Mycobacterium tuberculosis. Kind of assay: Antibiofilm activity against Mycobacterium bovis BCG. Type of assay: functional, organism-based. Conditions: variant bovis BCG.
`CC(C)=C1C[C@H]2C(C)(C)[C@@]3(Br)C(=O)c4c(O)cc(O)cc4[C@]2(C1)C3=O` returned an IC50 of 220 to 13900 nM.
Still for that read-out and setting: in the case of `COc1cc(O)c2c(c1)[C@@]13CC(=C(C)C)C[C@H]1[C@](C)(CCC=C(C)C)[C@@](Br)(C2=O)C3=O` it was 640 to 10300 nM; in that of `COc1cc(OC)c2c(c1)[C@@]13CC(=C(C)C)C[C@H]1[C@](C)(CCC=C(C)C)[C@@](Br)(C2=O)C3=O`, 160 to 2500 nM.
`CO[C@H]1/C=C/O[C@@]2(C)Oc3c(C)c(O)c4c(O)c(c(/C=N/N5CCN(C)CC5)c(O)c4c3C2=O)NC(=O)/C(C)=C\C=C\[C@H](C)[C@H](O)[C@@H](C)[C@@H](O)[C@@H](C)[C@H](OC(C)=O)[C@@H]1C` [RIFAMPIN] returned an IC50 of 1220 nM.
